17 molecules from patent publication US7632952B2, “Benzothiazoles and the use thereof as medicaments” (Aventis Pharma S.A., priority 2004, dated 2009) can be followed below.

What is called pIC50 is −log10 of the IC50, conventionally taken in molar units.

pIC50: −log10 of the molar value. Counter-ions that a name gives are not always drawn.

This assay has as its target CDK2/cyclin E (Homo sapiens, UniProt P24941). Put plainly: CDK2/cyclin E Flashplate test in 96-well format. The settings on record: read-out: CDK2 IC50. It is filed as biochemical. In a few lines:
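CDK2/cyclin E-(His)6 from baculovirus-coinfected Sf21 cells was IMAC-purified. Kinase reaction used biotinylated pRb peptide (10 μM final), [γ-33P]ATP in HEPES pH 7.5 with Mg2+ and DTT, at 30 °C in streptavidin Flashplates. 33P incorporation was scintillation counted and IC50 determined.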
Regarding `O=C(Nc1nc2ccc(OS(=O)(=O)c3ccc(NCCCn4ccnc4)cc3)cc2s1)C1CC1` [Example 9, 4-(3-imidazol-1-ylpropylamino)benzenesulfonic 2-(cyclopropanecarbonylamino)benzothiazol-6-yl ester], the pIC50 is 7.17.

For the molecule `CNc1ccc(S(=O)(=O)Oc2ccc3nc(NC(=O)C4CC4)sc3c2)cc1` [Example 10, 4-methylaminobenzenesulfonic 2-(cyclopropane-carbonylamino)benzothiazol-6-yl ester], the pIC50 was 7.04.

Regarding `CC(C)(O)CNc1ccc(S(=O)(=O)Oc2ccc3nc(NC(=O)C4CC4)sc3c2)cc1` [Example 11, 4-(2-hydroxy-2-methylpropylamino)benzene-sulfonic 2-(cyclopropanecarbonylamino)benzothiazol-6-yl ester], the pIC50 is 7.72.

Consider `CC(C)N(CCNc1ccc(S(=O)(=O)Oc2ccc3nc(NC(=O)C4CC4)sc3c2)cc1)C(C)C` [Example 12, 4-(2-diisopropylaminoethylamino)benzenesulfonic 2-(cyclopropanecarbonylamino)benzothiazol-6-yl ester], for which the pIC50 is 7.60.

Regarding `O=C(Nc1nc2ccc(OS(=O)(=O)c3cccs3)cc2s1)C1CC1` [Example 33h, Thiophene-2-sulfonic acid 2-(cyclopro-panecarbonylamino)benzothiazol-6-yl ester], the pIC50 was 5.16.

Turning to `CC(C)N(CCNc1ccc(S(=O)(=O)Oc2ccc3nc(NC(=O)C4(N)CCCC4)sc3c2)cc1)C(C)C` [Example 41, 4-(2-diisopropylaminoethylamino)benzenesulfonic acid 2-[(1-aminocyclopentanecarbonyl)amino]benzothiazol-6-yl ester], the pIC50 is less than 5.00.

`CC(=O)Nc1nc2ccc(OS(=O)(=O)c3ccc(NCCN(C(C)C)C(C)C)cc3)cc2s1` [Example 43, 4-(2-Diisopropylaminoethylamino)benzenesulfonic acid 2-acetylaminobenzothiazol-6-yl ester]: the pIC50 was 7.31.

In the case of `COCC(=O)Nc1nc2ccc(OS(=O)(=O)c3ccc(NCCN(C(C)C)C(C)C)cc3)cc2s1` [Example 44, 4-(2-Diisopropylaminoethylamino)benzenesulfonic acid 2-(2-methoxyacetylamino)benzothiazol-6-yl ester], the pIC50 is 6.97.

With `CC(C)N(CCNc1ccc(S(=O)(=O)Oc2ccc3nc(NC(=O)C4CCCC4)sc3c2)cc1)C(C)C` [Example 45, 4-(2-Diisopropylaminoethylamino)benzenesulfonic acid 2-(cyclo-pentanecarbonylamino)benzothiazol-6-yl ester], the pIC50 was 6.87.

For the molecule `CC(C)NCCNc1ccc(S(=O)(=O)Oc2ccc3nc(NC(=O)C4CC4)sc3c2)cc1` [Example 53, 4-(2-isopropylaminoethylamino)benzenesulfonic 2-(cyclopropanecarbonylamino)benzothiazol-6-yl ester hydrochloride], the pIC50 is 7.60.

In the case of `CC(C)C(=O)Nc1nc2ccc(OS(=O)(=O)c3ccc(NCCN(C(C)C)C(C)C)cc3)cc2s1` [Example 55, 4-(2-diisopropylaminoethylamino)benzenesulfonic acid 2-isobutyrylaminobenzothiazol-6-yl ester hydrochloride], the pIC50 was 7.14.

For the molecule `CCC(=O)Nc1nc2ccc(OS(=O)(=O)c3ccc(NCCN(C(C)C)C(C)C)cc3)cc2s1` [Example 57, 4-(2-diisopropylaminoethylamino)benzenesulfonic acid 2-propionylaminobenzothiazol-6-yl ester hydrochloride], the negative-log IC50 (pIC50) was 7.40.

For the molecule `CC(C)N(CCNc1ccc(S(=O)(=O)Oc2ccc3nc(NC(=O)C4CCC4)sc3c2)cc1)C(C)C` [Example 60, 4-(2-diisopropylaminoethylamino)benzenesulfonic acid 2-(cyclobutanecarbonylamino)benzothiazol-6-yl ester hydrochloride], the pIC50 was 6.98.

As to `CC(C)(O)CNc1ccc(S(=O)(=O)Oc2ccc3nc(NC(=O)CCc4cccnc4)sc3c2)cc1` [Example 63, 4-(2-hydroxy-2-methylpropylamino)benzene-sulfonic acid 2-(3-pyrid-3-ylpropionylamino)benzothiazol-6-yl ester hydro-chloride], the pIC50 is 7.10.

For the molecule `CC(=O)Nc1nc2ccc(OS(=O)(=O)c3ccc(NCCNC(C)C)cc3)cc2s1` [Example 65, 4-(2-isopropylaminoethylamino)benzenesulfonic acid 2-acetylaminobenzothiazol-6-yl ester], the negative logarithm of the IC50 (pIC50) was 6.97.

`O=C(Nc1nc2ccc(OS(=O)(=O)c3ccc(-c4ccccn4)s3)cc2s1)C1CC1` [Example 85, 5-pyridin-2-ylthiophene-2-sulfonic acid 2-(cyclopropanecarbonylamino)benzothiazol-6-yl ester]: the pIC50 was less than 5.00.

With `CC(C)(CNc1ccc(S(=O)(=O)Oc2ccc3nc(NC(=O)C4CC4)sc3c2)cc1)OP(=O)(O)O` [Example 89, 4-(2-methyl-2-phosphonooxypropylamino)benzene-sulfonic acid 2-(cyclopropanecarbonylamino)benzothiazol-6-yl ester], the pIC50 is 6.98.
